# Assay results reported in patent US6312704A, “Orally administrable composition capable of providing enhanced bioavailability when ingested” (Gattefosse, S.A., priority 1993, dated 2001).
# Legend:
# [1] = assay type: physicochemical; conditions: gastric medium pH 1.2
# Source text: The proportions by weight of the different constituents of this mixture are: […]
# [2] = in vitro rate of dissolution of hydrocortisone in a gastric medium (pH 1.2); assay type: physicochemical
# Source text: In this example, the rates of dissolution of hydrocortisone in a gastric medium (at pH 1.2) are compared.
# The same lipophilic phase and the same SA/CoSA mixture are used as in Example 8, but in the following proportions: […]
# [3] = in vitro dissolution of indomethacin in a gastric medium at pH 1.2; assay type: physicochemical; conditions: gastric medium pH 1.2
# Experimental: In all the examples, the complement by weight to […] of the composition is, in actual fact, represented by an anti-inflammatory active principle, namely indomethacin in Examples 1 to 8, and 12, hydrocortisone in Example 9 and diclofenac sodium in Example 10. In examples 1-12, the hydrophilic phase is represented by water which is known to be a simulation of the digestive milieu for in vitro tests.
# By way of comparison, when the pure active agent (indomethacin) is tested, at best only 5% of this active agent is dissolved in one hour; and still by way of comparison, with hard gelatin capsules of this active principle which are currently on the market, only 4.7% of active agent dissolved is obtained at the end of one hour.
# In this example, the rates of dissolution in vitro in a gastric medium (at pH =1.2), in which indomethacin alone has a rate of dissolution of less than 5% in the same medium, are compared.
# (§1) The proportions by weight of the different constituents of this mixture are:
# In this example, the same components are used as in the preceding example, with different proportions, namely: […]
# [4] = in vivo test on rats, plasma concentrations after oral administration of indomethacin; conditions: powder made into a suspension immediately before use
# Experimental: In vivo tests were conducted on rats with indomethacin as active agent.
# as §1
# An oral administration of indomethacin is first carried out according to the above composition.
# A second series of tests consists in administering indomethacin orally in the form of powder made into a suspension immediately before use.
structure (smiles),measurement,setting,value
O=C(O)Cc1ccccc1Nc1c(Cl)cccc1Cl [diclofenac sodium],rate of dissolution in 30 min,[1]; 30 min,1%
same,solubility in gastric medium (in words),[1]; powder form,almost insoluble
C[C@]12CCC(=O)C=C1CC[C@@H]1[C@@H]2[C@@H](O)C[C@@]2(C)[C@H]1CC[C@]2(O)C(=O)CO [hydrocortisone],rate of dissolution in 45 minutes,[2],10%
COc1ccc2c(c1)c(CC(=O)O)c(C)n2C(=O)c1ccc(Cl)cc1 [indomethacin],percentage of the active agent dissolved at the end of one hour,[3]; one hour,≤ 5%
same,rate of dissolution,"[3]; indomethacin alone, time not stated",less than 5%
same,kinetics obtained,[4],irregular and vary from one animal to another
same,concentration at 1 h,"[4]; rat, in vivo, one hour",1000 to 5000 ng/mL
same,concentration at 2 h,"[4]; rat, in vivo, two hours",1000 to 4000 ng/mL
